Assay results: patent US20180064662A1 (THE GENERAL HOSPITAL CORPORATION, priority 2015, published 2018)

Tests used:
PAN02 tumors = assay: Orthotopic PAN02 PDAC model in obese C57BL/6 mice, metformin in drinking water; format: in vivo, mouse
From the text: Wild-type (WT) C57BL/6 and FVB male mice were originally obtained from The Jackson Laboratory (The Jackson Laboratory, Bar Harbor, Me.) and bred and maintained in our defined-flora animal facility. Mice were maintained on a 12-h light-dark cycle in a temperature-controlled barrier facility, with ad libitum access to food and acidified water. To generate obese/diabetic mouse models, mice (6-weeks old) were given a 60% fat diet (D12492, Research Diets, New Brunswick, N.J.) for 10 weeks as previously described (49-51). For tumor experiments, the PAN02 and AK4.4 syngeneic PDAC models were used in C57BL/6 and FVB immunocompetent mice, respectively. PAN02 cells (SMAD4-m174) (52) were obtained from ATCC. AK4.4 cells (KrasG12D and p53^+/−) were isolated from mice generating spontaneous pancreatic tumors (Pt∫1-Cre/LSL-Kras^G12D/p53^Loxi−) (53). Orthotopic pancreatic tumors were generated by implanting a small piece (1 mm^3) of viable tumor tissue (from a source tumor in a separate donor animal) into the pancreas of a 6-8- week-old male lean or obese FVB (AK4.4 model) or C57BL/6 (PAN02 model) mouse. Both tumor models used were authenticated by IDEXX Laboratories. (PAN02: IDEXX RADIL Case # 22366-2013. AK4.4: IDEXX RADIL Case # 27818-2014).
At day 21, plasma and tumor samples were collected, and tumors were weighed and processed for further analysis.
This can be translated to the human equivalent dose by using the Reagan-Shaw method (54). According to the formula for the human equivalent dose [(mg/kg)=animal dose (mg/kg)×animal (km)/human (km). Km for a 60 kg human adults equals 37 and for a 20 g mouse equals 3], the human equivalent of murine dose of 300 mg/kg is 1459 mg for an average sized 60 kg adult human. Therefore, the selected dose in the present study is within the safe therapeutic range recorded in humans. […] This was compatible with the therapeutic periods reported in previous studies (55, 56). […] The amount added to each animal cage was calculated based on the average daily water intake for that cage during a period of 2 weeks prior to treatment initiation, and adjusted every three days based on water consumption and body weight of the animals. […] For in vitro experiments, a range of concentration from 0.05 to 25 mM depending on the cell line used, as discussed below.
Immediately following excision, tumor tissue was snap frozen and stored in liquid nitrogen. Total RNA was extracted and relative gene expression for macrophage M1/M2 markers was determined using a Sybr-green based standard protocol. In addition, total RNA was extracted and relative gene expression was determined using RT2 Profiler PCR Arrays system (Qiagen) on a Stratagene Mx3000P QPCR System using pre-made pathway-focused arrays (“Fibrosis”-Cat. Number: PAMM011Z; “Epithelial to Mesenchymal Transition (EMT)”-Cat. Number: PAMM090Z; “TGF-β signaling targets”-PAMM235Z; “Extracellular Matrix & Adhesion Molecules”-Cat. Number: PAMM013Z; and “Common cytokines ”-Cat. Number: PAMM021Z).
Each tumor sample was homogenized directly in lysis buffer for protein extraction. 20 ug of denatured protein per sample was loaded on 7%, 10% and 12% SDS-polyacrylamide gels. Antibodies used: phospho-p38 MAPKT^180/Y182 and p38; phospho-JNK (SAPK/JNK)^Thr183/Tyr185 and JNK; phospho-AKT^Ser473 and AKT, phospho-ERK(p44/42 MAPK)^T202/Y204 and ERK; phospho-NF-κB^Ser536 and NK-κB; p65^Ser536; phospho-Smad2^Ser465/467 and Smad2; phospho-IGF-I Receptor β^Tyr1135 and IGF; Phospho-IRS-1^Ser612 and IRS; IR; phpspho-stat3^Tyr705 and stat3; Phospho-AMPKα^Thr172 and Ampkα; phospho-Ampkβ^Ser108 and Ampk; phospho-ACC^Ser79 and ACC; Phospho-PDGF Receptor β^Tyr751 and PDGF Receptor β and snail, c-cadherin and vimentin, TGF-β, β-catenin, twist, LC3B. […]

human PSC viability = assay: MTT viability assay on PSCs; format: cell-based
MCA-IV tumors = assay: MCA-IV breast cancer in lean and obese mice, anti-VEGF therapy; format: in vivo, mouse
macrophage viability = assay: MTT viability assay on macrophages; format: cell-based, mouse; conditions: 48 h
pancreatic cancer = conditions: newly diagnosed pancreatic cancer cases, diabetic patients; cited from earlier work
[1] = TAMs from PAN02 tumors in vivo, qPCR
[2] = obese C57BL/6 mice, metformin 300 mg/Kg
[3] = particularly evident in the more metastatic model PAN02

## CN(C)C(=N)N=C(N)N [metformin, 3-(diaminomethylidene)-1,1-dimethylguanidine]
PAN02 tumors; [1]
  expression of M1 markers in flow-sorted TAMs: without significantly affecting
  expression of M2 marker Arg-1 in flow-sorted TAMs: 1/2
  expression of M2 marker IL-10 in flow-sorted TAMs: 2/3
PAN02 tumors; Western blot
  activation and phosphorylation of IGFR-1 and IRS-1 in tumors: trend for reduced activation and phosphorylation
  activation of ACC in tumors: increased
  expression of the autophagy marker L3CB: unchanged
PAN02 tumors; Western blot, not significant
  average MMP-2 levels in metformin treated tumors: approximately half
PAN02 tumors; after metformin treatment
  IL-1β in tumors: reduction of IL-1β
PAN02 tumors; flow cytometry, not significant
  TAM levels lower with metformin treatment: ~30%
PAN02 tumors; [2]
  activation of STAT3 in whole tumors: decreased activation of STAT3
  p38 activation in whole tumors: trend for reduced p38
PAN02 tumors; obese C57BL/6 mice, metformin 300 mg/Kg in drinking water, did not reach statistical significance
  decreased expression of HA: 40%
PAN02 tumors; obese C57BL/6 mice, metformin 300 mg/Kg, did not reach significance
  reduced density of HA positive activated-PSCs: 57%
PAN02 tumors; obese C57BL/6 mice, metformin 300 mg/Kg, did not reach statistical significance
  decreased expression of collagen-I: 22%
PAN02 tumors; obese C57BL/6 mice, metformin 300 mg/Kg, significant
  reduced density of collagen-I positive activated PSCs in tumors: 54%
PAN02 tumors; [3]
  average number of mesenteric peritoneal and retroperitoneal wall metastasis per mouse: reduced
  incidence of metastasis (number of mice affected): reduced the incidence of metastasis
PAN02 tumors; tumor-bearing mice
  body weight: no change in body weight
Human PSC viability; 48 h, MTT
  doses at which metformin significantly reduces PSC viability: > 7.5 mM
Human PSC viability; metformin 1 mM
  viability of PSCs: does not substantially affect the viability
MCA-IV tumors; obese animals treated with anti-VEGF
  FGF-2 gene and protein expression, downstream signaling: decreases
MCA-IV tumors; obese animals treated with anti-VEGF, metformin
  vessel density: decreases
MCA-IV tumors; obese setting, metformin
  tumor growth response to anti-VEGF: improved tumor growth response to anti-VEGF
Macrophage viability
  doses at which metformin reduces macrophage viability: > 0.2 mM
Macrophage viability; listed as Metformin
  doses at which metformin reduces macrophage viability: ≥ 0.4 mM
Pancreatic cancer
  reduced risk of death: 32%
